One series addresses p38 MAPKα (Homo sapiens (Human), UniProt Q16539). Description: p38 MAPKα enzyme inhibition (FRET, Z-LYTE). Type of series: biochemical.
A further series concerns the target cSrc (Homo sapiens (Human), UniProt P12931). Description: c-Src enzyme inhibition (FRET, Z-LYTE). It counts as biochemical. The essentials:
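Z-LYTE FRET kinase assay: enzyme (3000 or 2000 ng/mL stock, respectively) preincubated 2 h at RT with compound (4–0.004 μg/mL stocks), then FRET peptide plus ATP (800 μM stock for c-Src, 60 μM for Syk) added for 1 h. Protease development 1 h; phosphorylation from coumarin/fluorescein emission ratio.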

Series [1] deals with LPS-induced TNFα release in d-U937 cells. Description: LPS-induced TNFα release in d-U937 cells. It counts as cell-based. To be noted: Homo sapiens, dU937, relative to 10 μg/mL BIRB796, read-out: LPS Induced Release of Cytokine in d-937 Cells TNFα REC50. The essentials: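 Read-out: TNFα and IL-8 released into supernatant, sandwich ELISA, expressed as inhibition versus vehicle at each dose and fitted to give REC50. Cells were PMA-differentiated U937 (100 ng/mL, 48–72 hr), compound-exposed 2 hr before a 4 hr LPS stimulus (0.1 μg/mL).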

The test system of series [2] is Poly I:C-induced ICAM-1 expression in BEAS2B cells. Kind of series: Poly I:C-induced ICAM-1 expression in BEAS2B cells. It counts as cell-based. The note with it: Homo sapiens, BEAS-2B, read-out: Poly IC induced ICAM1 in BEAS2B IC50. In outline: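 BEAS2B human bronchial epithelial cells pre-incubated with compound for 2 hr, then transfected with 1 μg/mL poly I:C plus Oligofectamine. At 18 hr, surface ICAM-1 measured by cell-based ELISA (HRP, OD450–655). Signal corrected for cell number by crystal violet OD595.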

For series [3], the system named is LPS-induced IL-8 release in d-U937 cells. Description: LPS-induced IL-8 release in d-U937 cells. Type of series: cell-based. To be noted: Homo sapiens, dU937, read-out: LPS Induced Release of Cytokine in d-937 Cells IL-8 IC50. The essentials: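 First, U937 monocytes undergo PMA treatment (100 ng/mL) for 48 to 72 hr to become macrophage-type. Next, compound at final concentrations is added for 2 hr, followed by LPS at 0.1 μg/mL for 4 hr. Finally, cytokines in the supernatant are quantified by ELISA against vehicle-treated cells.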

The subject of a further series is d-U937 cells. Description: Cell viability: MTT assay. To be noted: 1 μg/mL. Type of series: cell-based, human. In outline: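 Differentiated U937 cells were exposed to compound at 1 or 10 μg/mL either 4 h in 5% FCS RPMI1640 or 24 h in 10% FCS RPMI1640, then given MTT for 1 h, DMSO-solubilised and read at 550 nm. Percent viability loss versus 0.5% DMSO vehicle; apparent gains appear negative.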

Chain of p38 MAPKα (Q16539 whole entry): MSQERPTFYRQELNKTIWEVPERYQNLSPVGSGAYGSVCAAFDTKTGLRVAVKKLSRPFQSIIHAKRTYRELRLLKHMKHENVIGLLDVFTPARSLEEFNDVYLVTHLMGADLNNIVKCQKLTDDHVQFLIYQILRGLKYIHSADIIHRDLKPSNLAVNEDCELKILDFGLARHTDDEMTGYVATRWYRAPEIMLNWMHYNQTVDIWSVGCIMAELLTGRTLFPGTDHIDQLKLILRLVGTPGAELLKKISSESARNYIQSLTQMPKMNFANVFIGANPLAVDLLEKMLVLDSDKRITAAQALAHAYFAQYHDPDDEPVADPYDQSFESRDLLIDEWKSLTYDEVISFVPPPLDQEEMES
Chain of cSrc (P12931 whole entry, looked up): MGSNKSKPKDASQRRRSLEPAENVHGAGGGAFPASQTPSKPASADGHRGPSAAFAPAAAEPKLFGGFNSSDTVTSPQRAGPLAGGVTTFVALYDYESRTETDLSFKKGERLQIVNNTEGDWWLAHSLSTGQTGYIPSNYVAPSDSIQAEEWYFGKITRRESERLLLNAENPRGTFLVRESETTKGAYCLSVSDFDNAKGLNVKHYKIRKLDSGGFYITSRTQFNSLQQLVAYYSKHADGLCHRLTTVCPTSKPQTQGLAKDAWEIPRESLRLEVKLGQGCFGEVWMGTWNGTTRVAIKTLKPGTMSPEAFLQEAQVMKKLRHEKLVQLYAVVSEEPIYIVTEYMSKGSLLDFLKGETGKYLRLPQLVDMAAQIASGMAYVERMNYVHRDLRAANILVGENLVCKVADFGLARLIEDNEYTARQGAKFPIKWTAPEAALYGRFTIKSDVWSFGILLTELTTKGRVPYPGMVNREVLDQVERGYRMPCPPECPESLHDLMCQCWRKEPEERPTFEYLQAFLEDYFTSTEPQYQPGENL

As to `Cc1ccc(-n2nc(C(C)(C)C)cc2NC(=O)Nc2ccc(Oc3ccnc(Nc4ccc5ncsc5c4)n3)c3ccccc23)cc1` [Example 35, 1-(4-((2-(benzo[d]thiazol-6-ylamino)pyrimidin-4-yl)oxy)naphthalen-1-yl)-3-(3-(tert-butyl)-1-(p-tolyl)-1H-pyrazol-5-yl)urea], the 50% inhibitory concentration (IC50) amounted to 439 nM on p38 MAPKα, 18 nM at cSrc, 2.7 nM in series [2] and 22.2 nM in series [3]. Further, in series [1], the EC50 is 11 nM. Moreover, the “MTT Assay Cell viability at time point in d-U937 cells 4 h” value in the series on d-U937 cells is “−ve (−ve and +ve indicate that the value is below and above respectively, the no significant effect threshold, defined as 30% inhibition at 1 μg/mL at the time point indicated.)”. For the same compound, in the series on d-U937 cells, the “MTT Assay Cell viability at time point in d-U937 cells 24 h” value was “−ve (−ve and +ve indicate that the value is below and above respectively, the no significant effect threshold, defined as 30% inhibition at 1 μg/mL at the time point indicated.)”.
For `Cc1ccc(-n2nc(C(C)(C)C)cc2NC(=O)Nc2ccc(Oc3cc(Nc4ccc5[nH]ncc5c4)ncn3)c3ccccc23)cc1` [Example 23, 1-(4-((6-((1H-indazol-5-yl)amino)pyrimidin-4-yl)oxy)naphthalen-1-yl)-3-(3-(tert-butyl)-1-(p-tolyl)-1H-pyrazol-5-yl)urea], the 50% inhibitory concentration (IC50) on p38 MAPKα came to 30 nM; against cSrc, 16 nM; in series [2] it was 4.3 nM; in series [3], 2.7 nM. In addition, the EC50 in series [1] amounted to 3.3 nM. Further, in the series on d-U937 cells, the “MTT Assay Cell viability at time point in d-U937 cells 4 h” value is “−ve (−ve and +ve indicate that the value is below and above respectively, the no significant effect threshold, defined as 30% inhibition at 1 μg/mL at the time point indicated.)”. The “MTT Assay Cell viability at time point in d-U937 cells 24 h” value with d-U937 cells was “−ve (−ve and +ve indicate that the value is below and above respectively, the no significant effect threshold, defined as 30% inhibition at 1 μg/mL at the time point indicated.)”.
On to `Cc1ccc(-n2nc(C(C)(C)C)cc2NC(=O)Nc2ccc(Oc3ccnc(Nc4ccc5[nH]ncc5c4)n3)c3ccccc23)cc1` [Example 22, 1-(4-((2-((1H-indazol-5-yl)amino)pyrimidin-4-yl)oxy)naphthalen-1-yl)-3-(3-(tert-butyl)-1-(p-tolyl)-1H-pyrazol-5-yl)urea], for which the half-inhibitory concentration (IC50) is 56 nM against p38 MAPKα, 19 nM against cSrc, 2.5 nM in series [2] and 1.5 nM in series [3]. Besides, the EC50 in series [1] worked out at 4.7 nM. For the same compound, the “MTT Assay Cell viability at time point in d-U937 cells 4 h” value with d-U937 cells is “−ve (−ve and +ve indicate that the value is below and above respectively, the no significant effect threshold, defined as 30% inhibition at 1 μg/mL at the time point indicated.)”. Further, in the series on d-U937 cells, the “MTT Assay Cell viability at time point in d-U937 cells 24 h” value was “−ve (−ve and +ve indicate that the value is below and above respectively, the no significant effect threshold, defined as 30% inhibition at 1 μg/mL at the time point indicated.)”.
Take `Cc1cc(Nc2nccc(Oc3ccc(NC(=O)Nc4cc(C(C)(C)C)nn4-c4ccc(=O)n(CCN5CCOCC5)c4)c4ccccc34)n2)cc2cn[nH]c12` [Example 89, 1-(3-(tert-butyl)-1-(1-(2-morpholinoethyl)-6-oxo-1,6-dihydropyridin-3-yl)-1H-pyrazol-5-yl)-3-(4-((2-((7-methyl-1H-indazol-5-yl)amino)pyrimidin-4-yl)oxy)naphthalen-1-yl)urea]: the concentration for half-maximal inhibition (IC50) was 47 nM against p38 MAPKα, < 1 nM at cSrc, 17.1 nM in series [2] and 28.8 nM in series [3]. Further, in series [1], the EC50 came to 10.8 nM. In the series on d-U937 cells, the “MTT Assay Cell viability at time point in d-U937 cells 4 h” value was “−ve (−ve and +ve indicate that the value is below and above respectively, the no significant effect threshold, defined as 30% inhibition at 1 μg/mL at the time point indicated.)”. Moreover, in the series on d-U937 cells, the “MTT Assay Cell viability at time point in d-U937 cells 24 h” value was “+ve (−ve and +ve indicate that the value is below and above respectively, the no significant effect threshold, defined as 30% inhibition at 1 μg/mL at the time point indicated.)”.
`Cc1ccc(-n2nc(C(C)(C)C)cc2NC(=O)Nc2ccc(Oc3ccnc(Nc4ccc5scnc5c4)n3)c3ccccc23)cc1` [Example 34, 1-(4-((2-(benzo[d]thiazol-5-ylamino)pyrimidin-4-yl)oxy)naphthalen-1-yl)-3-(3-(tert-butyl)-1-(p-tolyl)-1H-pyrazol-5-yl)urea]: the IC50 was 308 nM at p38 MAPKα, 18 nM at cSrc, 6.3 nM in series [2] and 3.4 nM in series [3]. Further, the EC50 in series [1] is 0.9 nM. For the same compound, the “MTT Assay Cell viability at time point in d-U937 cells 4 h” value in the series on d-U937 cells is “−ve (−ve and +ve indicate that the value is below and above respectively, the no significant effect threshold, defined as 30% inhibition at 1 μg/mL at the time point indicated.)”. In addition, in the series on d-U937 cells, the “MTT Assay Cell viability at time point in d-U937 cells 24 h” value is “−ve (−ve and +ve indicate that the value is below and above respectively, the no significant effect threshold, defined as 30% inhibition at 1 μg/mL at the time point indicated.)”.
On to `Cc1ccc(-n2nc(C(C)(C)C)cc2NC(=O)Nc2ccc(Oc3ccnc(Nc4ccc5ncn(C)c5c4)n3)c3ccccc23)cc1` [Example 31, 1-(3-(tert-butyl)-1-(p-tolyl)-1H-pyrazol-5-yl)-3-(4-((2-((1-methyl-1H-benzo[d]imidazol-6-yl)amino)pyrimidin-4-yl)oxy)naphthalen-1-yl)urea], for which the 50% inhibitory concentration (IC50) at p38 MAPKα came to 33 nM; at cSrc, 6 nM; in series [2] it was 2.3 nM; in series [3], 0.6 nM. For the same compound, the EC50 in series [1] was 0.3 nM. Further, in the series with d-U937 cells, the “MTT Assay Cell viability at time point in d-U937 cells 4 h” value is “−ve (−ve and +ve indicate that the value is below and above respectively, the no significant effect threshold, defined as 30% inhibition at 1 μg/mL at the time point indicated.)”. Besides, in the series on d-U937 cells, the “MTT Assay Cell viability at time point in d-U937 cells 24 h” value was “−ve (−ve and +ve indicate that the value is below and above respectively, the no significant effect threshold, defined as 30% inhibition at 1 μg/mL at the time point indicated.)”.

A word on the IC50: it is the point on the concentration scale where inhibition reaches its midpoint.

The record behind these values is patent US9249125B2, “Pyrazole derivatives as p38 MAP inhibitors” (RESPIVERT LIMITED, priority 2012, dated 2016).
